Laboratory results published in PubChem BioAssay (NCI).
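Step 1: Grow cells in 96-well plates. Step 2: Expose to compound for 48 hours at 5 concentrations. Step 3: Interpolate endpoints linearly; if unreached, use highest concentration. GI50: concentration for 50% inhibition of growth. Definition used: TGI = concentration required for complete inhibition of growth.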

Tests used:
Test in all cases: NCI anticancer screen, dose series, 48 h
786-0 renal = tested on: 786-0 renal
ACHN renal = tested on: ACHN renal
BT-549 breast = tested on: BT-549 breast
CAKI-1 renal = tested on: CAKI-1 renal
CCRF-CEM leukemia = tested on: CCRF-CEM leukemia
COLO 205 colon = tested on: COLO 205 colon
DU-145 prostate = tested on: DU-145 prostate
EKVX NSCLC = tested on: EKVX NSCLC
HCC-2998 colon = tested on: HCC-2998 colon
HCT-116 colon = tested on: HCT-116 colon
HCT-15 colon = tested on: HCT-15 colon
HL-60(TB) leukemia = tested on: HL-60(TB) leukemia
HOP-62 NSCLC = tested on: HOP-62 NSCLC
HOP-92 NSCLC = tested on: HOP-92 NSCLC
HS 578T breast = tested on: HS 578T breast
HT29 colon = tested on: HT29 colon
IGROV1 ovarian = tested on: IGROV1 ovarian
KM12 colon = tested on: KM12 colon
LOX IMVI melanoma = tested on: LOX IMVI melanoma
M14 melanoma = tested on: M14 melanoma
MCF7 breast = tested on: MCF7 breast
MDA-MB-231 breast = tested on: MDA-MB-231 breast
MDA-MB-435 = tested on: MDA-MB-435
MOLT-4 leukemia = tested on: MOLT-4 leukemia
NCI-H226 lung = tested on: NCI-H226 lung
NCI-H23 lung = tested on: NCI-H23 lung
NCI-H460 lung = tested on: NCI-H460 lung
NCI-H522 lung = tested on: NCI-H522 lung
NCI/ADR-RES ovarian = tested on: NCI/ADR-RES ovarian
OVCAR-3 ovarian = tested on: OVCAR-3 ovarian
OVCAR-4 ovarian = tested on: OVCAR-4 ovarian
OVCAR-5 ovarian = tested on: OVCAR-5 ovarian
OVCAR-8 ovarian = tested on: OVCAR-8 ovarian
PC-3 prostate = tested on: PC-3 prostate
RXF 393 renal = tested on: RXF 393 renal
SF-268 CNS = tested on: SF-268 CNS
SF-295 CNS = tested on: SF-295 CNS
SF-539 CNS = tested on: SF-539 CNS
SK-MEL-2 melanoma = tested on: SK-MEL-2 melanoma
SK-MEL-28 melanoma = tested on: SK-MEL-28 melanoma
SK-MEL-5 melanoma = tested on: SK-MEL-5 melanoma
SK-OV-3 ovarian = tested on: SK-OV-3 ovarian
SN12C renal = tested on: SN12C renal
SNB-19 CNS = tested on: SNB-19 CNS
SNB-75 CNS = tested on: SNB-75 CNS
SW-620 colon = tested on: SW-620 colon
TK-10 renal = tested on: TK-10 renal
U251 CNS = tested on: U251 CNS
UACC-257 melanoma = tested on: UACC-257 melanoma
UACC-62 melanoma = tested on: UACC-62 melanoma
UO-31 renal = tested on: UO-31 renal
A498 renal = tested on: A498 renal
A549 NSCLC = tested on: A549 NSCLC
K-562 leukemia = tested on: K-562 leukemia
MALME-3M melanoma = tested on: MALME-3M melanoma
RPMI-8226 leukemia = tested on: RPMI-8226 leukemia
SR leukemia = tested on: SR leukemia
T-47D breast = tested on: T-47D breast

CCOc1ccc(/C=C2\NC(=S)N(/C=C3\C(=O)Oc4ccccc4C3=O)C2=O)cc1
TGI (786-0 renal): 39.5 µM | TGI (ACHN renal): 56.3 µM | TGI (BT-549 breast): 54.9 µM | TGI (CAKI-1 renal): 53.5 µM | TGI (CCRF-CEM leukemia): 40.4 µM | TGI (COLO 205 colon): 43.4 µM | TGI (DU-145 prostate): 57.7 µM | TGI (EKVX NSCLC): 70 µM | TGI (HCC-2998 colon): > 100 µM | TGI (HCT-116 colon): 39.9 µM | TGI (HCT-15 colon): 49.9 µM | TGI (HL-60(TB) leukemia): 33.7 µM | TGI (HOP-62 NSCLC): 61.9 µM | TGI (HOP-92 NSCLC): 53.4 µM | TGI (HS 578T breast): 96.2 µM | TGI (HT29 colon): 82.1 µM | TGI (IGROV1 ovarian): 61.7 µM | TGI (KM12 colon): 69.2 µM | TGI (LOX IMVI melanoma): 87.5 µM | TGI (M14 melanoma): 92.4 µM | TGI (MCF7 breast): 63.1 µM | TGI (MDA-MB-231 breast): 50.7 µM | TGI (MDA-MB-435): 78.3 µM | TGI (MOLT-4 leukemia): 51.2 µM | TGI (NCI-H226 lung): 45.7 µM | TGI (NCI-H23 lung): 80.8 µM | TGI (NCI-H460 lung): 51.8 µM | TGI (NCI-H522 lung): 51.2 µM | TGI (NCI/ADR-RES ovarian): 45.7 µM | TGI (OVCAR-3 ovarian): 44.6 µM | TGI (OVCAR-4 ovarian): 66.5 µM | TGI (OVCAR-5 ovarian): > 100 µM | TGI (OVCAR-8 ovarian): 36.7 µM | TGI (PC-3 prostate): 42.3 µM | TGI (RXF 393 renal): 33.6 µM | TGI (SF-268 CNS): 68 µM | TGI (SF-295 CNS): 49.8 µM | TGI (SF-539 CNS): 36.5 µM | TGI (SK-MEL-2 melanoma): 48 µM | TGI (SK-MEL-28 melanoma): 83.9 µM | TGI (SK-MEL-5 melanoma): 41.5 µM | TGI (SK-OV-3 ovarian): 38.8 µM | TGI (SN12C renal): 45.3 µM | TGI (SNB-19 CNS): 59.8 µM | TGI (SNB-75 CNS): 61.6 µM | TGI (SW-620 colon): > 100 µM | TGI (TK-10 renal): 49.6 µM | TGI (U251 CNS): 78.4 µM | TGI (UACC-257 melanoma): 75.8 µM | TGI (UACC-62 melanoma): 37.9 µM | TGI (UO-31 renal): 49.4 µM

COC(=O)[C@]12CC[C@@H](C)[C@H](C)[C@@H]1C1=CC[C@@H]3[C@@]4(C)C(C=O)=C[C@@](C)(COS(C)(=O)=O)C4[C@H](O)C[C@@]3(C)[C@]1(C)CC2 (stereo partly drawn)
GI50 (786-0 renal): 1.79 µM | TGI (786-0 renal): 3.58 µM | GI50 (A498 renal): 3.74 µM | TGI (A498 renal): 16 µM | GI50 (A549 NSCLC): 2.64 µM | TGI (A549 NSCLC): 11 µM | GI50 (ACHN renal): 1.18 µM | TGI (ACHN renal): 2.56 µM | GI50 (CAKI-1 renal): 2.05 µM | TGI (CAKI-1 renal): 5.58 µM | GI50 (CCRF-CEM leukemia): 0.782 µM | TGI (CCRF-CEM leukemia): 3.22 µM | GI50 (COLO 205 colon): 1.85 µM | TGI (COLO 205 colon): 3.93 µM | GI50 (DU-145 prostate): 1.69 µM | TGI (DU-145 prostate): 3.41 µM | GI50 (EKVX NSCLC): 2.14 µM | TGI (EKVX NSCLC): 6.28 µM | GI50 (HCC-2998 colon): 1.69 µM | TGI (HCC-2998 colon): 3.12 µM | GI50 (HCT-116 colon): 1.1 µM | TGI (HCT-116 colon): 2.57 µM | GI50 (HCT-15 colon): 1.34 µM | TGI (HCT-15 colon): 2.87 µM | GI50 (HL-60(TB) leukemia): 1.17 µM | TGI (HL-60(TB) leukemia): 4.24 µM | GI50 (HOP-62 NSCLC): 2.23 µM | TGI (HOP-62 NSCLC): 4.45 µM | GI50 (HOP-92 NSCLC): 2.39 µM | TGI (HOP-92 NSCLC): 5.56 µM | GI50 (HS 578T breast): 3.12 µM | TGI (HS 578T breast): 8.77 µM | GI50 (HT29 colon): 1.64 µM | TGI (HT29 colon): 3.5 µM | GI50 (IGROV1 ovarian): 2.58 µM | TGI (IGROV1 ovarian): 7.36 µM | GI50 (K-562 leukemia): 0.797 µM | TGI (K-562 leukemia): 6.28 µM | GI50 (KM12 colon): 1.83 µM | TGI (KM12 colon): 3.96 µM | GI50 (LOX IMVI melanoma): 1.47 µM | TGI (LOX IMVI melanoma): 2.81 µM | GI50 (M14 melanoma): 1.68 µM | TGI (M14 melanoma): 4.5 µM | GI50 (MALME-3M melanoma): 1.65 µM | TGI (MALME-3M melanoma): 3.39 µM | GI50 (MCF7 breast): 1.19 µM | TGI (MCF7 breast): 3.63 µM | GI50 (MDA-MB-435): 1.67 µM | TGI (MDA-MB-435): 3.57 µM | GI50 (MOLT-4 leukemia): 0.313 µM | TGI (MOLT-4 leukemia): 1.05 µM | GI50 (NCI-H226 lung): 2.88 µM | TGI (NCI-H226 lung): 7.31 µM | GI50 (NCI-H23 lung): 1.68 µM | TGI (NCI-H23 lung): 3.63 µM | GI50 (NCI-H460 lung): 2.15 µM | TGI (NCI-H460 lung): 4.93 µM | GI50 (NCI-H522 lung): 1.21 µM | TGI (NCI-H522 lung): 2.91 µM | GI50 (NCI/ADR-RES ovarian): 2.03 µM | TGI (NCI/ADR-RES ovarian): 5.3 µM | GI50 (OVCAR-3 ovarian): 1.7 µM | TGI (OVCAR-3 ovarian): 3.33 µM | GI50 (OVCAR-4 ovarian): 1.84 µM | TGI (OVCAR-4 ovarian): 6.06 µM | GI50 (OVCAR-5 ovarian): 1.96 µM | TGI (OVCAR-5 ovarian): 6.5 µM | GI50 (OVCAR-8 ovarian): 2.08 µM | TGI (OVCAR-8 ovarian): 5.71 µM | GI50 (PC-3 prostate): 1.39 µM | TGI (PC-3 prostate): 6.48 µM | GI50 (RPMI-8226 leukemia): 0.342 µM | TGI (RPMI-8226 leukemia): 1.99 µM | GI50 (RXF 393 renal): 1.53 µM | TGI (RXF 393 renal): 2.9 µM | GI50 (SF-268 CNS): 2 µM | TGI (SF-268 CNS): 4.82 µM | GI50 (SF-295 CNS): 1.31 µM | TGI (SF-295 CNS): 2.77 µM | GI50 (SF-539 CNS): 1.83 µM | TGI (SF-539 CNS): 3.71 µM | GI50 (SK-MEL-2 melanoma): 2.06 µM | TGI (SK-MEL-2 melanoma): 5.03 µM | GI50 (SK-MEL-28 melanoma): 2.15 µM | TGI (SK-MEL-28 melanoma): 5.05 µM | GI50 (SK-MEL-5 melanoma): 1.7 µM | TGI (SK-MEL-5 melanoma): 3.26 µM | GI50 (SK-OV-3 ovarian): 4.08 µM | TGI (SK-OV-3 ovarian): 16.2 µM | GI50 (SN12C renal): 2.28 µM | TGI (SN12C renal): 6.39 µM | GI50 (SNB-19 CNS): 2.47 µM | TGI (SNB-19 CNS): 8.44 µM | GI50 (SNB-75 CNS): 1.51 µM | TGI (SNB-75 CNS): 8.86 µM | GI50 (SR leukemia): 0.299 µM | TGI (SR leukemia): 1.38 µM | GI50 (SW-620 colon): 2.36 µM | TGI (SW-620 colon): 5.7 µM | GI50 (T-47D breast): 1.8 µM | TGI (T-47D breast): 5.93 µM | GI50 (TK-10 renal): 2 µM | TGI (TK-10 renal): 4.91 µM | GI50 (U251 CNS): 1.65 µM | TGI (U251 CNS): 3.17 µM | GI50 (UACC-257 melanoma): 1.85 µM | TGI (UACC-257 melanoma): 3.65 µM | GI50 (UACC-62 melanoma): 1.66 µM | TGI (UACC-62 melanoma): 3.96 µM | GI50 (UO-31 renal): 1.04 µM | TGI (UO-31 renal): 2.35 µM
